# Results published in ChEMBL document CHEMBL5500339, “4-Hydroxy-2-pyridone derivatives with antitumor activity produced by mangrove endophytic fungus Talaromyces sp. CY-3” (Eur J Med Chem, 2024).
# Calls of active or inactive are those of the source. The calls are words filed in the database; no cut-off is given here.
# Legend:
# A549 [1] = experiment: Induction of cell cycle arrest in human A549 cells assessed as downregulation of CDK4 protein expression incubated for 24 hrs by Western blotting analysis; type: functional, cell-based
# NCI-H1703 [2] = experiment: Induction of cell cycle arrest in human NCI-H1703 cells assessed as downregulation of total Rb protein level at 5 uM incubated for 24 hrs by Western blotting analysis; type: functional, cell-based
# NCI-H1703 [3] = experiment: Inhibition of colony formation in human NCI-H1703 cells at 5 uM incubated for 7 days by crystal violet staining analysis; type: functional, cell-based; conditions: time 7.0 day
# [4] = Cytotoxicity against mouse Lewis lung carcinoma cell line assessed as reduction in cell viability incubated for 48 hrs by MTT assay; type: functional, cell-based
# NCI-H1703 [5] = experiment: Induction of cell cycle arrest in human NCI-H1703 cells assessed as upregulation of p53 protein expression incubated for 24 hrs by Western blotting analysis; type: functional, cell-based
# B16-F10 = experiment: Cytotoxicity against mouse B16-F10 cells assessed as reduction in cell viability incubated for 48 hrs by MTT assay; type: functional, cell-based; conditions: B16-F10, 48 h
# NCI-H1703 [6] = experiment: Antiproliferative activity against human NCI-H1703 cells assessed as inhibition of cell growth at 20 uM incubated for 24 hrs by MTT assay; type: functional, cell-based
# NCI-H1703 [7] = experiment: Induction of cell cycle arrest in human NCI-H1703 cells assessed as downregulation of Rb phosphorylation at Ser807/811 residue at 10 uM incubated for 24 hrs by Western blotting analysis; type: functional, cell-based
# HCT-116 = experiment: Cytotoxicity against human HCT-116 cells assessed as reduction in cell viability incubated for 48 hrs by MTT assay; type: functional, cell-based; conditions: HCT-116, 48 h
# Hepa 1-6 = experiment: Cytotoxicity against mouse Hepa1-6 cells assessed as reduction in cell viability incubated for 48 hrs by MTT assay; type: functional, cell-based; conditions: Hepa1-6, 48 h
# A549 [8] = experiment: Induction of cell cycle arrest in human A549 cells assessed as accumulation of cells at G1/G0 phase at 20 uM incubated for 24 hrs by flow cytometric analysis (reference value: 51.49 %); type: functional
# NCI-H1703 [9] = experiment: Induction of cell cycle arrest in human NCI-H1703 cells assessed as accumulation of cells at G2/M phase at 10 uM incubated for 24 hrs by flow cytometric analysis (reference value: 29.88 %); type: functional
# A549 [10] = experiment: Induction of cell cycle arrest in human A549 cells assessed as downregulation of CyclinD1 protein expression incubated for 24 hrs by Western blotting analysis; type: functional, cell-based
# NCI-H1703 [11] = experiment: Inhibition of colony formation in human NCI-H1703 cells at 2.5 uM incubated for 7 days by crystal violet staining analysis; type: functional, cell-based; conditions: time 7.0 day
# NCI-H1703 [12] = experiment: Induction of cell cycle arrest in human NCI-H1703 cells assessed as downregulation of CyclinD1 protein expression incubated for 24 hrs by Western blotting analysis; type: functional, cell-based
# A549 [13] = experiment: Induction of cell cycle arrest in human A549 cells assessed as accumulation of cells at G2/M phase at 20 uM incubated for 24 hrs by flow cytometric analysis (reference value: 17.2 %); type: functional
# A549 [14] = experiment: Induction of cell cycle arrest in human A549 cells assessed as upregulation of p53 protein expression incubated for 24 hrs by Western blotting analysis; type: functional, cell-based
# NCI-H1703 [15] = experiment: Induction of cell cycle arrest in human NCI-H1703 cells assessed as accumulation of cells at S phase at 10 uM incubated for 24 hrs by flow cytometric analysis (reference value: 28.06 %); type: functional
# A549 [16] = experiment: Induction of cell cycle arrest in human A549 cells assessed as accumulation of cells at G2/M phase at 10 uM incubated for 24 hrs by flow cytometric analysis (reference value: 17.2 %); type: functional
# A549 [17] = experiment: Antiproliferative activity against human A549 cells assessed as inhibition of cell growth at 20 uM incubated for 24 hrs by MTT assay; type: functional, cell-based
# A549 [18] = experiment: Induction of cell cycle arrest in human A549 cells assessed as accumulation of cells at S phase at 20 uM incubated for 24 hrs by flow cytometric analysis (reference value: 31.31 %); type: functional
# NCI-H1703 [19] = experiment: Induction of cell cycle arrest in human NCI-H1703 cells assessed as downregulation of Rb phosphorylation at Ser807/811 residue at 5 uM incubated for 24 hrs by Western blotting analysis; type: functional, cell-based
# NCI-H1703 [20] = experiment: Cytotoxicity against human NCI-H1703 cells assessed as reduction in cell viability incubated for 48 hrs by MTT assay; type: functional, cell-based; conditions: NCI-H1703, 48 h
# A549 [21] = experiment: Induction of cell cycle arrest in human A549 cells assessed as downregulation of total Rb protein level at 10 uM incubated for 24 hrs by Western blotting analysis; type: functional, cell-based
# A549 [22] = experiment: Antiproliferative activity against human A549 cells assessed as inhibition of cell growth at 10 uM incubated for 24 hrs by MTT assay; type: functional, cell-based
# NCI-H1703 [23] = experiment: Induction of cell cycle arrest in human NCI-H1703 cells assessed as downregulation of total Rb protein level at 10 uM incubated for 24 hrs by Western blotting analysis; type: functional, cell-based
# NCI-H1703 [24] = experiment: Antiproliferative activity against human NCI-H1703 cells assessed as inhibition of cell growth at 10 uM incubated for 24 hrs by MTT assay; type: functional, cell-based
# A549 [25] = experiment: Induction of cell cycle arrest in human A549 cells assessed as accumulation of cells at S phase at 10 uM incubated for 24 hrs by flow cytometric analysis (reference value: 31.31 %); type: functional
# 4T1 = experiment: Cytotoxicity against mouse 4T1 cells assessed as reduction in cell viability incubated for 48 hrs by MTT assay; type: functional, cell-based; conditions: 4T1, 48 h
# NCI-H1703 [26] = experiment: Induction of cell cycle arrest in human NCI-H1703 cells assessed as accumulation of cells at G1/G0 phase at 5 uM incubated for 24 hrs by flow cytometric analysis (reference value: 42.06 %); type: functional
# NCI-H1703 [27] = experiment: Induction of cell cycle arrest in human NCI-H1703 cells assessed as downregulation of CDK6 protein expression incubated for 24 hrs by Western blotting analysis; type: functional, cell-based
# A549 [28] = experiment: Induction of cell cycle arrest in human A549 cells assessed as downregulation of Rb phosphorylation at Ser807/811 residue at 20 uM incubated for 24 hrs by Western blotting analysis; type: functional, cell-based
# A549 [29] = experiment: Induction of cell cycle arrest in human A549 cells assessed as upregulation of p21 protein expression incubated for 24 hrs by Western blotting analysis; type: functional, cell-based
# NCI-H1703 [30] = experiment: Antiproliferative activity against human NCI-H1703 cells assessed as inhibition of cell growth incubated for 18 hrs by Edu incorporation based fluorescence microscopic analysis; type: functional
# NCI-H1703 [31] = experiment: Induction of cell cycle arrest in human NCI-H1703 cells assessed as upregulation of p21 protein expression incubated for 24 hrs by Western blotting analysis; type: functional, cell-based
# NCI-H1703 [32] = experiment: Induction of cell cycle arrest in human NCI-H1703 cells assessed as accumulation of cells at G1/G0 phase at 10 uM incubated for 24 hrs by flow cytometric analysis (reference value: 42.06 %); type: functional
# A549 [33] = experiment: Induction of cell cycle arrest in human A549 cells assessed as downregulation of CDK6 protein expression incubated for 24 hrs by Western blotting analysis; type: functional, cell-based
# PC-3 = experiment: Cytotoxicity against human PC-3 cells assessed as reduction in cell viability incubated for 48 hrs by MTT assay; type: functional, cell-based; conditions: PC-3, 48 h
# MDA-MB-231 = experiment: Cytotoxicity against human MDA-MB-231 cells assessed as reduction in cell viability incubated for 48 hrs by MTT assay; type: functional, cell-based; conditions: MDA-MB-231, 48 h
smiles,measurement,setting,value
C/C=C/[C@@H]1[C@H]2C[C@@H](C)CC[C@@H]2C(C)=C[C@H]1C(=O)c1c(O)c(-c2ccc(O)cc2)c[nH]c1=O [ILICICOLIN H],Activity,A549 [1],Dose-Dependent Effect
same,Activity,NCI-H1703 [2],inactive
same,inhibition,NCI-H1703 [3],Active
same,IC50,[4],5.78 µM
same,Activity,NCI-H1703 [5],Dose-Dependent Effect
same,IC50,B16-F10,21.6 µM
same,Activity,NCI-H1703 [6],Active
same,Activity,NCI-H1703 [7],Active
same,IC50,HCT-116,10.8 µM
same,IC50,Hepa 1-6,19.6 µM
same,Activity,A549 [8],72.12%
same,Activity,NCI-H1703 [9],19.48%
same,Activity,A549 [10],Dose-Dependent Effect
same,inhibition,NCI-H1703 [11],Active
same,Activity,NCI-H1703 [12],Dose-Dependent Effect
same,Activity,A549 [13],12.93%
same,Activity,A549 [14],Dose-Dependent Effect
same,Activity,NCI-H1703 [15],24.49%
same,Activity,A549 [16],24%
same,Activity,A549 [17],Active
same,Activity,A549 [18],14.95%
same,Activity,NCI-H1703 [19],Active
same,IC50,NCI-H1703 [20],6.65 µM
same,Activity,A549 [21],inactive
same,Activity,A549 [22],Active
same,Activity,NCI-H1703 [23],inactive
same,Activity,NCI-H1703 [24],Active
same,Activity,A549 [25],10.84%
same,IC50,4T1,13.8 µM
same,Activity,NCI-H1703 [26],50.13%
same,Activity,NCI-H1703 [27],Dose-Dependent Effect
same,Activity,A549 [28],Active
same,Activity,A549 [29],Dose-Dependent Effect
same,Activity,NCI-H1703 [30],Dose-Dependent Effect
same,Activity,NCI-H1703 [31],Dose-Dependent Effect
same,Activity,NCI-H1703 [32],56.04%
same,Activity,A549 [33],Dose-Dependent Effect
same,IC50,PC-3,> 50 µM
same,IC50,MDA-MB-231,9.98 µM
